Where two headings read alike, the source gives them in different places. Peptide text beside a SMILES is read from it. Where only a bound is given, the exact number is not on record here.

For data set [1], the system named is Mouse vas deferens. The settings on record: values marked ** (from literature); cited from earlier work.
In a further data set the target is μ-site. The data set is described as follows: Binding assay in guinea pig brain homogenates, μ-ligand [3H]-[D-Ala2,MePhe4,Gly-ol5]enkephalin. The settings on record: for Ki: guinea-pig brain homogenates, 150 minutes at 0° C., mean ±SEM, read-out: KI, [3H]-[DAla2,MePhe4,Gly-ol5]enkephalin (μ-site). Here is the method:
(§1) [^3 H]-[D-Ala^2,MePhe^4, Gly-ol^5 ]enkephalin (1 nM) was used as μ-ligand, [^3 H]-[D-Ala^2,D-Leu^5 ]enkephalin (1 nM) as a relatively selective δ-ligand and [^3 H]-(-)-bremazocine (0.3 nM) as κ-ligand, in the presence of 100 nM each of unlabelled [D-Ala^2,MePhe^4,Gly-ol^5 ]enkephalin and [D-Ala^2,D-Leu^5 ]enkephalin for the suppression of μ- and δ-binding.
(§2) The μ- and […] of [^3 H]-(-)-bremazocine was suppressed with 100 nM each of unlabelled [D-Ala^2,MePhe^4,Gly-ol^5 ]enkephalin and [D-Ala^2,D-Leu^5 ]enkephalin.

The subject of data set [2] is myenteric plexus-longitudinal muscle of the guinea pig. The settings on record: values marked ** (from literature); cited from earlier work.
The next data set addresses δ-site. The class given is binding, guinea pig. The settings on record: for Ki: guinea-pig brain homogenates, 150 minutes at 0° C., mean ±SEM, read-out: KI, [3H]-[DAla2,D-Leu5]enkephalin (δ-site). On the procedure: as §1, §2
Data set [3] relates to Rat vas deferens. The settings on record: values marked ** (from literature); cited from earlier work.
Another data set relates to Rabbit vas deferens. Put plainly: Opioid bioassay, rabbit vas deferens. The class given is cell-based. The settings on record: mean±SEM; peptidases inhibited by bestatin (30 μM), L-leucyl-L-leucine, thiorphan, captopril. On the procedure:
(§3) Bioassays were performed using preparations of the myenteric plexus-longitudinal muscle of the guinea pig and the vasa deferentia of the mouse, rabbit and rat. According to the procedures described by McKnight et al., Eur. J. Pharmacol., 86, 393-402 (1983) and Corbett et al., Nature, 299, 79-81 (1982). The drugs were prepared as 1 mg/ml stock solutions in water and dilutions were made in Krebs solution. The bioassays were performed on [Met 5] enkephalin and C-terminally extended Met 5 enkephalins, and compared with metorphamide.
(§4) The values shown are the mean±SEM of 4 observations and of 6 for [Met^5 ]enkephalyl-Arg-Arg-Val-Gly. The activity of the peptidases was inhibited by bestatin (10 μM, or 30 μM in the rat and rabbit), L-leucyl-L-leucine ([…]), thiorphan (0.3 μM) and captopril (10 μM).

Another data set has as its target T1, κ-site (Cavia porcellus, UniProt P41144).
T1 construct: The assays used homogenates of guinea-pig brain; from tissue; host or cells: guinea pig brain homogenate
The data set is described as follows: Binding assay in guinea pig brain homogenates, [3H]-(-)-bremazocine after suppression of μ- and δ-binding. Here is the method: as §1, §2

Data set [4] has as its system myenteric plexus-longitudinal muscle of the guinea pig. The data set is described as follows: Opioid bioassay, guinea-pig myenteric plexus-longitudinal muscle. Type of data set: cell-based. The settings on record: mean±SEM; peptidases inhibited by bestatin, L-leucyl-L-leucine, thiorphan, captopril. On the procedure: as §3, §4
The test system of data set [5] is Mouse vas deferens. The data set is described as follows: Opioid bioassay, mouse vas deferens. Type of data set: cell-based. The settings on record: mean±SEM; peptidases inhibited by bestatin, L-leucyl-L-leucine, thiorphan, captopril. Here is the method: as §3, §4
Data set [6] concerns Rat vas deferens. The data set is described as follows: Opioid bioassay, rat vas deferens. The settings on record: peptidases inhibited by bestatin (30 μM), L-leucyl-L-leucine, thiorphan, captopril. The class given is cell-based. On the procedure:
as §3, §4

The subject of data set [7] is anti-serum (R1-3) to synthetic metorphamide. The data set is described as follows: Radioaminoassay of metorphamide: cross-reaction with anti-serum R1-3, 125I-labeled synthetic metorphamide as tracer. The class given is binding, rabbit. The settings on record: on a molar basis. The source says:
An anti-serum to synthetic metorphamide was generated in male New Zealand white rabbits by injecting synthetic peptide linked to bovine thyroglobulin by carbodiimide according the method of Weber et al., J. Neurochem., 38, 436-447 (1982). The resulting anti-serum (R1-3) was used in a radioaminoassay using ^125 I labeled synthetic metorphamide as a tracer. The procedure used was as described by Weber et al. with modifications described by Weber et al., Nature, 299, 77-79 (1982). The metorphamide or radioaminoassay requires the carboxylterminal amide group as part of the recognition site. On a molar basis the free carboxy derivative of metorphamide cross reacts with less than 1.02% and the analog of metorphamide in which the carboxyterminal amide was substituted by a Glycine residue cross reacts at less than 0.3%. The adrenal medulla opioid peptides Bam-22 and Bam-12 (Mizuno et al., Biochem. Biophys. Res. Commun., 95, 1482-1488 (1980); Mizuno et al., Biochem. Biophys. Res. Commun., 97, 1283-1290 (1980)) which are carboxyterminal extensions of metorphamide both cross react less than 0.006% in the radioaminoassay.

Another data set concerns the target T2, carboxypeptidase A (Bos taurus, UniProt P00730).
T2 construct: purchased Sigma (printed as σ) type 1-DFP
T2 sequence (P00730 111-419): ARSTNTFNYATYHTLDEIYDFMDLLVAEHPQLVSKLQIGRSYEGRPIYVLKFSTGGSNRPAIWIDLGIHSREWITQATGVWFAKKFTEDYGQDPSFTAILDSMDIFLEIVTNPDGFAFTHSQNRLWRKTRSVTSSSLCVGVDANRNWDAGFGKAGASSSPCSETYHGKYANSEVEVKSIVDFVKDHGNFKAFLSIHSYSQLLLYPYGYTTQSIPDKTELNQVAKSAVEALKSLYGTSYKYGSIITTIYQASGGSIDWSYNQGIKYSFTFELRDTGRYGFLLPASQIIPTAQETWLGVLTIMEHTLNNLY
The data set is described as follows: Carboxypeptidase A digestion of bovine metorphamide and dynorphin. The settings on record: 400 ng enzyme, 37° C., pH 7.5. Type of data set: in vitro ADME. On the procedure:
A mixture of bovine metorphamide (30-35 pmol.) and synthetic dynorphin (60-70 pmol.) was dissolved in 1.6 ml. 0.02 m Tris buffer, containing 0.2 m NaCl and 0.1% Triton X-100, pH 7.5. 5 μl of a 20 mg/ml suspension of carboxypeptidase A (σ, type 1-DFP) containing 100 μg enzyme were dissolved in 1 ml. 10% LiCl. […] aliquots were withdrawn at times 1, 5, 10 and 60 minutes an equal volume of glacial acetic acid was added to each sample to terminate the enzyme reaction. After evaporation, the samples were assayed in triplicate by radioaminoassay for dynorphin and metorphamide. 0 time samples were withdrawn before enzyme was added to determine the amounts of peptides that were initially present in the incubation mixture. A separate sample of peptide mixture that received 4 μl of 10% LiCl without the enzyme was incubated at 37° C. for 60 minutes and 50 μl aliquots of this sample were also assayed for metorphamide and dynorphin. This latter sample served as a control for any non-specific degradation of peptide that may have occurred by unknown factors. […] The results of the digestion are shown in FIG. 2 wherein the metorphamide is indicated by O--O and dynorphin by X--X. Bovine metorphamide was stable to carboxypeptidase A digestion for at least 60 minutes while dynorphin was completely digested by the enzyme after 5 minutes.

[8] abbreviates: at KD concentrations of the tritiated ligands, total binding=1.

T1 sequence (P41144 whole entry): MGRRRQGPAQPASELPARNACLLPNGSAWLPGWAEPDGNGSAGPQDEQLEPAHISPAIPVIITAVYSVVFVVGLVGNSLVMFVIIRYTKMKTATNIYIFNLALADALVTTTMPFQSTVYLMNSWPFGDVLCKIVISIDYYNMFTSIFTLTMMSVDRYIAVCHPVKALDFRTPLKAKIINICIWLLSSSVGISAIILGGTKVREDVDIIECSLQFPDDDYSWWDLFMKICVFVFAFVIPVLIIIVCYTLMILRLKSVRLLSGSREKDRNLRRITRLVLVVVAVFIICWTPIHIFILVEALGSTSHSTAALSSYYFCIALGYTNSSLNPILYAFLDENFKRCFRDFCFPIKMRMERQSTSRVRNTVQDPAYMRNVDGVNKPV

The IC50 is the concentration needed to halve the response being measured. The term Ki denotes the dissociation constant of the complex between target and ligand, obtained from inhibition or displacement. `CSCC[C@H](NC(=O)[C@H](Cc1ccccc1)NC(=O)CNC(=O)CNC(=O)[C@@H](N)Cc1ccc(O)cc1)C(=O)O` [A, [Met^5]enkephalin]: the IC50 is 1.45 nM in the data set with Mouse vas deferens [1], 6.7 nM in [2], 260 nM in the data set with Rat vas deferens [3] and over 10000 nM with Rabbit vas deferens. For the same molecule, the inhibition constant (Ki) on μ-site was determined as 9.5 ± 0.54 nM; on δ-site, 0.91 ± 0.07 nM.

On κ-site, `CSCC[C@H](NC(=O)[C@H](Cc1ccccc1)NC(=O)CNC(=O)CNC(=O)[C@@H](N)Cc1ccc(O)cc1)C(=O)N[C@@H](CCCNC(=N)N)C(=O)N[C@@H](CCCNC(=N)N)C(=O)O` [C, [Met^5]enkephalylArg-Arg] gave a Ki of 11.2 ± 1.8 nM.

On to `CSCC[C@H](NC(=O)[C@H](Cc1ccccc1)NC(=O)CNC(=O)CNC(=O)[C@@H](N)Cc1ccc(O)cc1)C(=O)N[C@@H](CCCNC(=N)N)C(=O)N[C@@H](CCCNC(=N)N)C(=O)N[C@H](C(=O)O)C(C)C` [D, [Met^5 ]enkephalylArg-Arg-Val], for which, on κ-site, the affinity corresponds to a Ki of 2.11 ± 0.29 nM.

Turning to `CSCC[C@H](NC(=O)[C@H](Cc1ccccc1)NC(=O)CNC(=O)CNC(=O)[C@@H](N)Cc1ccc(O)cc1)C(=O)N[C@@H](CCCNC(=N)N)C(=O)N[C@@H](CCCNC(=N)N)C(=O)N[C@H](C(=O)NCC(=O)O)C(C)C` [E] (H-YGGFMRRVG-OH; N-terminus and C-terminus assumed), the IC50 in data set [4] was 6.62 ± 0.8 nM; with Mouse vas deferens [5] it was 21.4 ± 3.1 nM; in the data set with Rat vas deferens [6] it was over 3000 nM; in the data set on Rabbit vas deferens, 54.7 ± 11 nM. In addition, the inhibition constant (Ki) at μ-site turned out to be 1.39 ± 0.23 nM; at δ-site, 8.58 ± 1.54 nM. Also, the “cross reaction in the metorphamide radioaminoassay” value in data set [7] was “less than 0.3%”.

`CSCC[C@H](NC(=O)[C@H](Cc1ccccc1)NC(=O)CNC(=O)CNC(=O)[C@@H](N)Cc1ccc(O)cc1)C(=O)N[C@@H](CCCNC(=N)N)C(=O)N[C@@H](CCCNC(=N)N)C(=O)N[C@H](C(N)=O)C(C)C` [F]: the IC50 was 2.46 ± 0.34 nM in [4], 6.2 ± 1.1 nM with Mouse vas deferens [5], over 3000 nM in the data set on Rat vas deferens [6] and 41.2 ± 4.9 nM with Rabbit vas deferens. Further, the “relative potency (relative affinity) at the μ-site” value in the data set with μ-site (setting [8]) turned out to be 0.66. Also, the Ki on μ-site was determined as 0.115 ± 0.019 nM; on δ-site, 2.65 ± 0.23 nM. Further, in the data set on μ-site (ratio of relative affinities), the “activity for the μ-binding site relative to that of morphine” value was “approximately 2/3”. Besides, the “relative potency (relative affinity) at the δ-site” value in the data set with δ-site (setting [8]) is listed as 0.03. Also, the “relative potency (relative affinity) at the κ-site” value on κ-site (setting [8]) is recorded as 0.31. Moreover, the “time stable to carboxypeptidase A digestion” value on carboxypeptidase A is given as “at least 60 minutes”.

For `CC[C@H](C)[C@H](NC(=O)[C@H](CCCNC(=N)N)NC(=O)[C@H](CCCNC(=N)N)NC(=O)[C@H](CC(C)C)NC(=O)[C@H](Cc1ccccc1)NC(=O)CNC(=O)CNC(=O)[C@@H](N)Cc1ccc(O)cc1)C(=O)N[C@@H](CCCNC(=N)N)C(=O)N1CCC[C@H]1C(=O)N[C@@H](CCCCN)C(=O)N[C@@H](CC(C)C)C(=O)N[C@@H](CCCCN)C(=O)N[C@@H](Cc1c[nH]c2ccccc12)C(=O)N[C@@H](CC(=O)O)C(=O)N[C@@H](CC(N)=O)C(=O)N[C@@H](CCC(N)=O)C(=O)O` [dynorphin], the “time after which completely digested by carboxypeptidase A” value at carboxypeptidase A was determined as 5 min.

The record behind these values is patent publication US4490363A, “Metorphamide--a novel morphine-like peptide” (Board of Trustees of The Leland Stanford Junior University …, priority 1983, dated 1984).
